# Results reported in US10913738B2 (BRISTOL-MYERS SQUIBB COMPANY, priority 2017, dated 2021).
# Where two headings read alike, the source gives them in different places.
# How the values were obtained:
# [1] = target: T1, His-GST-TVMV-hRIPK1(1-324) (Homo sapiens, UniProt Q13546); experiment: RIPK1 HTRF Binding Assay
# T1 construct: The coding region of human RIPK1(1-324) flanked by NdeI site at 5′ end; made in house; host or cells: Spodoptera frugiperda (Sf9) insect cells, baculovirus
# T1 sequence (Q13546 1-324): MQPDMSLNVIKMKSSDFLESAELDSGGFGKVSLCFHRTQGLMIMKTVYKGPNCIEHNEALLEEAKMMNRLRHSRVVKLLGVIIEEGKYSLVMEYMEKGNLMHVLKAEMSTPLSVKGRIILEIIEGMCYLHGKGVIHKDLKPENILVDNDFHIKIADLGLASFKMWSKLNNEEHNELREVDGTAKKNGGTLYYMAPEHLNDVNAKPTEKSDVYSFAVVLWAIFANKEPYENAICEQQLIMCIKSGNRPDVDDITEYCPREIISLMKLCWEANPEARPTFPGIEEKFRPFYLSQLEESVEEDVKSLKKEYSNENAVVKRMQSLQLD
# Description: The plate was incubated at rt for 1 h.
# Cloning and Baculovirus Expression of RIPK1 Construct
# Baculovirus was generated for the construct using the Bac-to-Bac baculovirus expression system (Invitrogen) according to the manufacturer's protocol. Briefly, recombinant bacmid was isolated from transformed DH10Bac E. coli competent cells (Invitrogen) and used to transfect Spodoptera frugiperda (Sf9) insect cells (Invitrogen). Baculovirus was harvested 72 hours post transfection and a virus stock was prepared by infecting fresh Sf9 cells at a 1/1000 (v/v) ratio for 66 hours.
# The production was carried out either at a 10 L scale in a 22 L cellbag (GE Healthcare Bioscience, Pittsburgh, Pa.) or at a 20 L scale in a 50 L cellbag using WAVE-Bioreactor System 20/50 (GE Healthcare Bioscience). The infected cells were harvested by centrifugation at 2000 rpm for 20 min at 4° C. in a SORVALL® RC12BP centrifuge. The cell pellets was stored at −70° C. before protein was purified.
# RIPK1 containing cell paste was resuspended in 50 mM Tris pH 7.5, 150 mM NaCl, 10 mM imidazole, 5% glycerol, 5 mM MgSO4, 1 mM TCEP, 25 U/ml Benzonase, and Complete Protease Inhibitor tablets (1/50 ml, Roche Diagnostics, Indianapolis, Ind.). […] The suspension was clarified by centrifugation at 136,000×g for 40 min, at 4° C. The lysate was decanted from the pellet and passed through a 5 ml NiNTA Superflow cartridge (Qiagen, Valencia, Calif.) using an AKTA Pure (GE Healthcare). Column was eluted with 10 CV linear gradient into 50 mM Tris 7.5, 150 mM NaCl, 500 mM imidazole, 5% glycerol, 1 mM TCEP. Peak fractions were pooled and loaded directly onto 5 ml GSTrap 4B column (GE Healthcare). Column was washed with 50 mM Tris 7.0, 150 mM NaCl, 5% glycerol, 1 mM DTT and eluted in 10 CV linear gradient into 50 mM Tris 8.0, 150 mM NaCl, 20 mM reduced glutathione, 5% glycerol, 1 mM DTT. Fractions identified by SDS-PAGE as containing RIPK1 were pooled and concentrated using 30 kDa MWCO spin concentrators (Amicon Ultra-15, Millipore, Billerica, Mass.) and loaded onto a HiLoad 26/600 Superdex 200 column (GE Healthcare) equilibrated in 25 mM Tris 7.5, 150 mM NaCl, 2 mM TCEP, 5% glycerol.
# Protein was aliquoted and stored at −80° C.
# [2] = test system: MLKL phosphorylation in HT29-L23 human colorectal adenocarcinoma cells; experiment: MLKL Phosphorylation High-Content Assay; type: cell-based
# Description: MLKL Phosphorylation High-Content Assay
# Following six hours incubation at 37° C. […] MLKL phosporylation was detected using anti-MLKL (phospho S358) antibody (Abcam #ab187091) (1:1000 dilution in Blocking Buffer [PBS supplemented with 0.1% BSA]) with overnight incubation at 4° C. […] Following another three cycles of washes in PBS, the microplates were sealed, and cellular images were acquired in the Cellomics ArrayScan VTI high-content imager equipped with an X1 camera. […] The image sets were analyzed using the Compartmental Analysis Bioapplication software (Cellomics). The level of MLKL phosphorylation was quantified as MEAN CircRingAvgIntenRatio. […] The data were fitted using the 4-parameter logistic equation to calculate the IC50 and Ymax values.
# [3] = x marks IC50 class <20 nM, read-out: RIPK1 HTRF binding <20 nM
# [4] = x marks IC50 class >200 nM, read-out: RIPK1 HTRF binding >200 nM
# [5] = Homo sapiens, x marks IC50 class >200 nM, read-out: pMLKL cell activity >200 nM
# [6] = x marks IC50 class 20-200 nM, read-out: RIPK1 HTRF binding 20-200 nM
# [7] = Homo sapiens, x marks IC50 class 20-200 nM, read-out: pMLKL cell activity 20-200 nM
compound,measurement,setting,value
"5-(2-amino-[1,2,4]triazolo[1,5-a]pyridin-7-yl)-6-chloro-N-(2-flouro-5-(trifluoromethoxy)benzyl)nicotinamide [Example 373]",IC50,[1]; [3],< 20 nM
same,IC50,"[2]; x marks IC50 class >200 nM, read-out: pMLKL cell activity >200 nM",> 200 nM
"COc1ncc(-c2ccn3nc(N)nc3c2)cc1C(=O)N1CCCC(C(O)c2ccc(F)cc2)C1 (mixture of isomers) [Example 422, (5-(2-amino-[1,2,4]triazolo[1,5-a]pyridin-7-yl)-2-methoxypyridin-3-yl)(3-((4-fluorophenyl)(hydroxy)methyl)piperidin-1-yl)methanone]",IC50,[1]; [4],> 200 nM
same,IC50,[2]; [5],> 200 nM
"COc1ncc(-c2ccn3nc(N)nc3c2)cc1C(=O)NC(C)c1cccc(OC(F)(F)F)c1 (single isomer, unassigned) [Example 36-1, 5-{2-Amino-[1,2,4]triazolo[1,5-a]pyridin-7-yl}-2-methoxy-N-{1-[3-(trifluoromethoxy)phenyl]ethyl}pyridine-3-carboxamide]",IC50,[1]; [6],20 to 200 nM
same,IC50,[2]; [7],20 to 200 nM
"COc1ncc(-c2ccn3nc(N)nc3c2)cc1C(=O)NC(C)c1cccc(OC(F)(F)F)c1 (single isomer, unassigned) [Example 36-2, 5-{2-Amino-[1,2,4]triazolo[1,5-a]pyridin-7-yl}-2-methoxy-N-{1-[3-(trifluoromethoxy)phenyl]ethyl}pyridine-3-carboxamide]",IC50,[1]; [4],> 200 nM
same,IC50,[2]; [5],> 200 nM
"COc1ncc(-c2ccn3nc(N)nc3c2)cc1C(=O)NC(C)c1ccccc1OC(F)(F)F (single isomer, unassigned) [Example 38-2, 5-{2-Amino-[1,2,4]triazolo[1,5-a]pyridin-7-yl}-2-methoxy-N-{1-[2-(trifluoromethoxy)phenyl]ethyl}pyridine-3-carboxamide]",IC50,[1]; [4],> 200 nM
same,IC50,[2]; [5],> 200 nM
"COc1ncc(-c2ccn3nc(N)nc3c2)cc1C(=O)NCCC(O)c1ccc(F)cc1 (single isomer, unassigned) [Example 71-1, 5-(2-Amino-[1,2,4]triazolo[1,5-a]pyridin-7-yl)-N-(3-(4-fluorophenyl)-3-hydroxypropyl)-2-methoxynicotinamide]",IC50,[1]; [6],20 to 200 nM
same,IC50,[2]; [7],20 to 200 nM
"COc1ncc(-c2ccn3nc(N)nc3c2)cc1C(=O)Nc1cnn(C(C)c2ccc(F)cc2)c1 (single isomer, unassigned) [Example 76-1]",IC50,[1]; [3],< 20 nM
same,IC50,"[2]; Homo sapiens, x marks IC50 class <20 nM, read-out: pMLKL cell activity <20 nM",< 20 nM
"COc1ncc(-c2ccn3nc(N)nc3c2)cc1C(=O)Nc1cnn(C(C)c2ccc(F)cc2)c1 (single isomer, unassigned) [Example 76-2]",IC50,[1]; [3],< 20 nM
same,IC50,[2]; [7],20 to 200 nM
"COc1ncc(-c2ccn3nc(N)nc3c2)cc1C(=O)NCc1cccc(F)c1C(=O)N1CCC(F)(F)C1 [Example 378, 5-(2-amino-[1,2,4]triazolo[1,5-a]pyridin-7-yl)-N-(2-(3,3-difluoropyrrolidine-1-carbonyl)-3-fluorobenzyl)-2-methoxynicotinamide]",IC50,[2]; [7],20 to 200 nM
"COc1nc(C)c(-c2ccn3nc(N)nc3c2)cc1C(=O)NCc1cccc(F)c1C(=O)N1CCC(F)(F)C1 [Example 382, 5-(2-amino-[1,2,4]triazolo[1,5-a]pyridin-7-yl)-N-(2-(3,3-difluoropyrrolidine-1-carbonyl)-3-fluorobenzyl)-2-methoxy-6-methlnicotinamide]",IC50,"[2]; x marks IC50 class <20 nM, read-out: pMLKL cell activity <20 nM",< 20 nM
"COc1ncc(-c2ccn3nc(N)nc3c2)cc1NC(=O)c1cnn(Cc2ccccc2)c1 [Example 413, N-(5-(2-amino-[1,2,4]triazolo[1,5-a]pyridin-7-yl)-2-methoxypyridin-3-yl)-1-benzyl-1H-pyrazole-4-carboxamide]",IC50,[2]; [5],> 200 nM
"COc1ncc(-c2ccc3nc(N)nn3c2)cc1NC(=O)Cc1cc(OC(F)(F)F)ccc1F [Example 418, N-(5-(2-amino-[1,2,4]triazolo[1,5-a]pyridin-6-yl)-2-methoxypyridin-3-yl)-2-(2-fluoro-5-(trifluoromethoxy)phenyl)acetamide]",IC50,[2]; [7],20 to 200 nM
